Test results published in article PMC11412900 (Molecular Psychiatry, 2024).
Read-outs that look alike come from different tables or passages of the source.

Tests used:
[1] = test system: head twitch response in mice; assay: Head twitch response (HTR); type: in vivo; details: for Effect of antagonist pretreatment on tryptamine-induced HTR: antagonist s.c. 1 mg/kg 10 min before tryptamine i.p. 10 mg/kg; for HTR Emax (95% CI): 10-min period
Procedure: HTR studies were adapted from. Mice (N = 8–10 per group) were injected intraperitoneally (i.p.) with saline or the appropriate tryptamine dose (0.3, 1, 3, 10, or 30 mg/kg) and placed into the observation arena (25 × 25 × 40 cm). A camera mounted above the observation cage recorded the mice for the next 10 min after the injection. Another batch of animals (N = 8–10) received subcutaneous injections of either saline or the respective antagonist (WAY100635 1 mg/kg for 5-HT1AR or ketanserin 1 mg/kg for 5-HT2AR). After a 10-min interval, the animals were i.p. injected with the corresponding tryptamine (10 mg/kg) and placed in the observation arena. Animal behavior was recorded for the next 10 min after the last injection, as mentioned before. Video recordings were examined by two blind observers blinded to the treatments, who assessed the number of head twitches, defined as a rapid rotational jerk of the head which is not contiguous with any grooming behavior [39].
(§1) Data were expressed as means±standard deviation (SD). Competition, release and functional assays, and substrate-induced current curves were plotted and fitted by non-linear regression to obtain the IC50, EC50, and Emax values. For behavioral studies, data were fitted by non-linear regression and pED50 and Emax values (with the corresponding 95% CI) were estimated by means of a software (GraphPad Prism 10) that further extrapolates the data. The Cheng-Prusoff equation was used to calculate Ki (affinity): Ki = […]/(1 + [radioligand-concentration/Kd]). HTR curves were fitted using a Gaussian equation as described. Data from batch release assays were statistically analyzed with a mixed-effects model, employing Šidák’s correction for multiple comparisons. Total release at each concentration and the behavioral experiments with the corresponding antagonists were statistically analyzed using one-way ANOVA, followed by Tukey’s post-hoc test. Molecular volume (van der Waals) was calculated using a grid approximation (spacing 0.75 Å). logP was calculated using Molinspiration Cheminformatics software. For in vivo studies, one-way ANOVA with Dunnet’s post-hoc test was used to compare all conditions to saline in dose-response experiments when data were normally distributed. Otherwise, a non-parametric test (Kruskall-Wallis with Dunn’s post-hoc test) was used. Alpha was set at 0.05. Outliers were excluded following ROUT’s method (Q = 0.1%). All statistical analyses and Pearson correlations were conducted using GraphPad Prism 10 software (GraphPad software, San Diego, CA, USA).

[2] = test system: core body temperature in mice; assay: Core body temperature measurement; type: in vivo
Procedure: Rectal temperature of mice (N = 8–10 per group) was measured 60 min after i.p. injection of the corresponding compound (see previous section “Head twitch response”). This time point was chosen according to the maximal effect observed in pilot experiments. A thermocouple probe (YS451, Panlab, Barcelona, Spain) connected to a digital thermometer (TMP812RS, Panlab, Barcelona, Spain) was inserted 2 cm into the rectum and steady temperature readout was obtained after 10 s of insertion.
as §1

h5-HT1AR = target: T1, h5-HT1AR (Homo sapiens, UniProt P08908); assay: Radioligand binding, [3H]8-OH-DPAT displacement; details: 0.4 nM [3H]8-OH-DPAT, N ≥ 3; read-out: 5-HT1AR Ki ± SD
T1 construct: purchased Perkin Elmer, Inc. (Waltham, MA, USA)
T1 sequence (P08908 1-422): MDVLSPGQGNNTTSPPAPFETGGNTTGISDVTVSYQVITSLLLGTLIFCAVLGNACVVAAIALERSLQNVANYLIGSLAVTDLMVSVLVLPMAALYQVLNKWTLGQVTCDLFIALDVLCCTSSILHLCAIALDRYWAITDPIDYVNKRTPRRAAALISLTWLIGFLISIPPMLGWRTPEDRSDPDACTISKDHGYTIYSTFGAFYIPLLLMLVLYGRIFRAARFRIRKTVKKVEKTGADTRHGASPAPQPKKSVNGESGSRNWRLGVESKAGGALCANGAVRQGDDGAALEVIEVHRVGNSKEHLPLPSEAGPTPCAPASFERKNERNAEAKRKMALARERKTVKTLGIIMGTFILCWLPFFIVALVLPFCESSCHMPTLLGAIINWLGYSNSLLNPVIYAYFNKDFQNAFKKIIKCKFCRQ
Procedure: (§2) Binding assays were performed as described previously. Briefly, membrane preparations expressing h5-HT1AR, h5-HT2AR or hSERT (see Supplementary Material) were incubated with radiolabeled selective ligands 0.4 nM [^3H]8-OH-DPAT, 1 nM [^3H]ketanserin or 3 nM [^3H]imipramine, respectively. The drugs were diluted in the corresponding binding buffer and tested at increasing concentrations in duplicate. Binding reactions were performed in tubes containing the drug dilutions; 25 μl of the corresponding radioligand; and the membranes (10 μg and 5 μg/500 μL for 5-HT1AR and 5-HT2AR, respectively, and 15 μg/100 μL for hSERT), all diluted in binding buffer. […] Incubation was performed for 1 h at 27 °C for 5-HT1A/2AR and 22 °C for hSERT, according to the manufacturer’s protocol (Perkin Elmer, Inc., Waltham, MA, USA) and previous studies - saturation and kinetic experiments, respectively. The binding reactions were stopped by rapid filtration through GF/B glass microfiber filters pre-soaked with 0.5% polyethyleneimine and washing with ice-cold wash buffer. The filters were placed into vials and scintillation cocktail was added. The trapped radioactivity was quantified. Specific binding was defined as the difference between total binding (binding buffer alone) and non-specific binding. Experiments were conducted per duplicate for at least three independent experiments.

h5-HT2AR = target: T2, h5-HT2AR (Homo sapiens, UniProt P28223); type: binding; details: 1 nM [3H]ketanserin, N ≥ 3; read-out: 5-HT2AR Ki ± SD
T2 construct: purchased Perkin Elmer, Inc. (Waltham, MA, USA)
T2 sequence (P28223 whole entry): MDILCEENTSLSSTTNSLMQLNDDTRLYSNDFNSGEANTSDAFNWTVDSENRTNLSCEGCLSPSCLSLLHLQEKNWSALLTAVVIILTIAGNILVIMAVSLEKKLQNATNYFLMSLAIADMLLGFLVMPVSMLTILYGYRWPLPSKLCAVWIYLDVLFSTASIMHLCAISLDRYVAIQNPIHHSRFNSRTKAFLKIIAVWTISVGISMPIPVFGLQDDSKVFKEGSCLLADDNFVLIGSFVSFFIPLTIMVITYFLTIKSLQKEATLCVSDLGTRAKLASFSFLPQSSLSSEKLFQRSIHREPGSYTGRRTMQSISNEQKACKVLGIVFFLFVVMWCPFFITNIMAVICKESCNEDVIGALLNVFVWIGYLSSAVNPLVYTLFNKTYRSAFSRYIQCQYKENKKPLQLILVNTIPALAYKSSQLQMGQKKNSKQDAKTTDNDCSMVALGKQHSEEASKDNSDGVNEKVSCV
Procedure: as §2

SERT [3] = target: T3, SERT (Homo sapiens, UniProt P31645); assay: Radioligand binding, [3H]imipramine displacement
T3 construct: YFP (yellow-fluorescent protein); expressed in transfected cells
T3 sequence (P31645 whole entry): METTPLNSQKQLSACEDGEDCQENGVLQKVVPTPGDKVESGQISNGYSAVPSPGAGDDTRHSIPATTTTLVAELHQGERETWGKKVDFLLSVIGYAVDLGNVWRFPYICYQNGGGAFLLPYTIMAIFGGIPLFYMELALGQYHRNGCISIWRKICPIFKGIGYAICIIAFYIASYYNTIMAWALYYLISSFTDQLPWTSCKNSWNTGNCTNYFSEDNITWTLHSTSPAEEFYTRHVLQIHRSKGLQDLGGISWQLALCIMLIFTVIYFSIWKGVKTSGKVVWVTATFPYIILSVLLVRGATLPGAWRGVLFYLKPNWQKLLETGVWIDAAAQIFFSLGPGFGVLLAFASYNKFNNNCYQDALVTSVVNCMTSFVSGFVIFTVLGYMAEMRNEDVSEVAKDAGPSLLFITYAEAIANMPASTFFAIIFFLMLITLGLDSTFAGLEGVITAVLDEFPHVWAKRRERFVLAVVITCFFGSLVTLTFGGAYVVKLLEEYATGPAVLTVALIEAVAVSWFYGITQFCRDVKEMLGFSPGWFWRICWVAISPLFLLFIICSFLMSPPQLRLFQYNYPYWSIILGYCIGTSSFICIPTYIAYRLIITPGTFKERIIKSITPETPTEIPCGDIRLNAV
Procedure: as §2
(§3) The generation and maintenance of HEK293 cells stably expressing the yellow-fluorescent protein (YFP)-tagged version of the human isoform of SERT (hSERT) (Perkin Elmer, Waltham, MA, USA) was carried out as described previously. For uptake inhibition and batch release assays, cells were seeded onto previously poly-D-lysine (PDL)-coated 96-well plates at a density of 0.036 million cells per well [5]. For superfusion release assays, cells were seeded onto a previously coated with PDL 6 channel µ-slide at a density of 0.08 million cells per channel. Prior to patching, cells were grown in DMEM containing 10% FBS, Zeocin (150 µg/mL) and Blasticidin (6 µg/mL) for positive selection of transporter-expressing clones. The cells were seeded at a low density on PDL-coated 35 mm plates 24-48 hr prior to patching. For membrane preparation, HEK293 cells expressing hSERT transporters were harvested from 80–90% confluent dishes as described elsewhere. Protein concentration was determined using the Bio-RadProtein Reagent (Bio Rad Laboratories, Hercules, CA, USA). Membrane preparations were stored at −80°C until use. Generation and maintenance of CHO-K1 cells expressing the human isoform of 5-HT2AR (h5-HT2AR) was carried out as described in the manufacturer’s protocol (Perkin Elmer, Waltham, MA, USA). Routine DAPI-Staining assays tested negative in mycoplasma contamination.

SERT [4] = target: T3, SERT; assay: [3H]5-HT uptake inhibition in HEK293 cells expressing hSERT; type: cell-based
Procedure: See the Supplementary Material for cell culture procedures. The medium was removed from each well and replaced with 200 μL/well of Krebs-HEPES-Buffer (KHB). The cells were pre-incubated for 5 min with different concentrations of drug in KHB at 50 μL/well. […] The incubation solution was aspirated and the cells were washed with ice-cold KHB and lysed with 1% sodium dodecyl sulfate (SDS). The lysate was collected into vials and scintillation liquid was added. The radioactivity was quantified using a beta-scintillation counter (Perkin Elmer, Waltham, MA, USA). Non-specific uptake was determined in the presence of 30 μM paroxetine. Data were expressed as percentage of control uptake (absence of tryptamine).
as §3

[5] = test system: horizontal locomotor activity in mice; assay: Horizontal locomotor activity (HLA); type: in vivo; details: i.p., 30 min; for HLA (hypolocomotion) Emax (95% CI): total traveled distance
Procedure: The HLA test was carried out according to a previous study. The same animals (N = 8–10 per group) used for the assessment of HTR were recorded for 30 min in an observation arena, under low-light conditions with white noise. Video recordings were processed using a tracking software (Smart 3.0 Panlab, Barcelona, Spain) to measure the total traveled distance.
as §1

SERT [6] = target: T3, SERT; assay: Batch release of preloaded [3H]5-HT from HEK293 cells expressing SERT; type: cell-based; details: with or without monensin, pCA as positive control
Procedure: Batch release is a functional radiometric assay to assess transporter-mediated efflux. […] Subsequently, cells were washed three times with KHB and equilibrated for 10 min in KHB or KHB+monensin (10 µM). […] 10 µM pCA and 0.05 µM paroxetine were used as positive and negative controls, respectively. Liquid scintillation cocktail was added both to the wells containing cells (200 µL) and to the transferred supernatant (100 µL). Total radioactivity determined from/in the remaining lysate of the cells plus the transferred supernatant was set as 100%, and the radioactivity determined in each fraction was expressed as a percentage thereof. Assays were performed per duplicate for five independent experiments.

SERT [7] = target: T3, SERT; assay: Whole-cell patch clamp, transporter-mediated currents in HEK293 cells; type: cell-based
From the text: Whole-cell patch clamping was used to measure the transporter-mediated currents and performed as previously described. […] Cells were continuously superfused by a DAD-12 superfusion system and an 8-tube perfusion manifold (ALA Scientific Instruments in Farmingdale, NY, USA), which allowed to apply a physiological external solution. The pipette solution mimics the internal ionic composition of a cell. […] Passive holding currents were subtracted, and the traces were filtered using a 50-Hz digital Gaussian low-pass filter for analysis purposes. Five independent experiments were performed.

[8] = 3 nM [3H]imipramine, N ≥ 3, read-out: SERT Ki ± SD
[9] = read-out: 5-HT uptake inhibition IC50 ± SD, HEK293 hSERT, N ≥ 3
[10] = mice, i.p., 10 min after injection
[11] = mice, i.p., 60 min after injection

Structure (SMILES): COc1ccccc1N1CCN(CCN(C(=O)C2CCCCC2)c2ccccn2)CC1 [WAY100635, reference compound]
- Effect of antagonist pretreatment on tryptamine-induced HTR [1]: the number of head twitches increased significantly
- Effect of antagonist pretreatment on tryptamine-induced decrease in body temperature ([2]; antagonist s.c. 1 mg/kg before tryptamine i.p. 10 mg/kg, 60 min): the decrease in body temperature was lower

Structure (SMILES): COc1ccc2[nH]cc(CCNC(C)C)c2c1 [5-MeO-NIPT]
- Ki (h5-HT1AR): 0.0157 ± 0.0023 µM
- Ki (h5-HT2AR): 0.123 ± 0.038 µM
- Ki (SERT [3]; [8]): 8.59 ± 1.71 µM
- IC50 (SERT [4]; [9]): 32.1 µM
- HTR Emax (95% CI) ([1]; mice, i.p.): 7.58 (5.46–9.71) HTR events
- HTR ED50 [1, 10]: 4.85 mg/kg
- Change in body temperature ED50 [2, 11]: 7.35 mg/kg
- HLA (hypolocomotion) ED50 [5]: 1.96 mg/kg
- HLA (hypolocomotion) Emax (95% CI) [5]: 77.64 (69.78–85.50) % reduction

Structure (SMILES): O=C(c1ccc(F)cc1)C1CCN(CCn2c(=O)[nH]c3ccccc3c2=O)CC1 [ketanserin, reference compound]
- Effect of antagonist pretreatment on tryptamine-induced HTR [1]: prevented HTR response

Structure (SMILES): C=CCN(C)CCc1c[nH]c2ccc(OC)cc12 [5-MeO-MALT]
- Ki (h5-HT1AR): 0.00596 ± 0.00047 µM
- Ki (h5-HT2AR): 0.0529 ± 0.009 µM
- Ki (SERT [3]; [8]): 4.01 ± 0.417 µM
- IC50 (SERT [4]; [9]): 44.1 µM
- HTR Emax (95% CI) ([1]; mice, i.p.): 27.6 (23.2–32.0) HTR events
- HTR ED50 [1, 10]: 0.796 mg/kg
- Change in body temperature ED50 [2, 11]: 10.2 mg/kg
- HLA (hypolocomotion) ED50 [5]: 7.32 mg/kg
- HLA (hypolocomotion) Emax (95% CI) [5]: 85.40 (55.18–115.6) % reduction

Structure (SMILES): COc1ccc2[nH]cc(CCN(C)C)c2c1 [5-MeO-DMT, 5-methoxy-N,N-dimethyltryptamine]
- Ki (SERT [3]): 14.5 µM
- IC50 (SERT [4]): 50.1 µM
- ED50 ([1]; Mus musculus, ip, 10 min, mice, i.p., 10 min after injection): 4.84 mg/kg
- HTR Emax (95% CI) ([1]; mice, i.p.): 38.1 (31.7–44.5) HTR events
- ED50 ([2]; Mus musculus, ip, 1 h, mice, i.p., 60 min after injection, read-out: Change in body temperature ED50): 4.75 mg/kg
- ED50 ([5]; Mus musculus, ip, 0.5 h, read-out: HLA (hypolocomotion) ED50): 0.976 mg/kg
- HLA (hypolocomotion) Emax (95% CI) [5]: 41.72 (32.18–51.26) % reduction
- 5-HT releasing activity (SERT [6]): capable of evoking 5-HT release
- EC50 (SERT [7]): 2.6 µM
- SERT-mediated inward current Emax (SERT [7]; normalized to current elicited by 5-HT 10 µM): 0.41
- SERT substrate type (SERT [7]; whole-cell patch clamp): partial SERT substrates
